Legend:
MOLM14 D835Y cells = assay: MOLM14 D835Y cell viability (Cell Titer Glo); format: cell-based; conditions: Homo sapiens
Summary of the method: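 FLT3-D835Y-mutant MOLM14 cells, 1000/well in RPMI-1640 with 20% FBS, treated with 22-point 1:2 dilutions starting at 10 μM. After 48 h incubation, viability was read by CellTiter-Glo luminescence; bortezomib (2.3 μM final) served as cytotoxic control.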

IRAK1 = IRAK1 (Homo sapiens, UniProt P51617); assay: RBC HotSpot kinase inhibition assay, IRAK1; format: biochemical; conditions: isolated kinase, 33P-ATP, 2 h
Summary of the method: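 Isolated kinases, possibly truncated or lacking regulatory receptor domains, in 20 mM Hepes pH 7.5, 10 mM MgCl2, 1 mM EGTA, 0.01% Brij35, 2 mM DTT, 1% DMSO with substrate and cofactors. Compound preincubated 20 min, then ^33P-ATP added; 2 h at room temperature, read by P81 filter binding.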

Sequence of IRAK1 (P51617 whole entry, the tested form may be a part): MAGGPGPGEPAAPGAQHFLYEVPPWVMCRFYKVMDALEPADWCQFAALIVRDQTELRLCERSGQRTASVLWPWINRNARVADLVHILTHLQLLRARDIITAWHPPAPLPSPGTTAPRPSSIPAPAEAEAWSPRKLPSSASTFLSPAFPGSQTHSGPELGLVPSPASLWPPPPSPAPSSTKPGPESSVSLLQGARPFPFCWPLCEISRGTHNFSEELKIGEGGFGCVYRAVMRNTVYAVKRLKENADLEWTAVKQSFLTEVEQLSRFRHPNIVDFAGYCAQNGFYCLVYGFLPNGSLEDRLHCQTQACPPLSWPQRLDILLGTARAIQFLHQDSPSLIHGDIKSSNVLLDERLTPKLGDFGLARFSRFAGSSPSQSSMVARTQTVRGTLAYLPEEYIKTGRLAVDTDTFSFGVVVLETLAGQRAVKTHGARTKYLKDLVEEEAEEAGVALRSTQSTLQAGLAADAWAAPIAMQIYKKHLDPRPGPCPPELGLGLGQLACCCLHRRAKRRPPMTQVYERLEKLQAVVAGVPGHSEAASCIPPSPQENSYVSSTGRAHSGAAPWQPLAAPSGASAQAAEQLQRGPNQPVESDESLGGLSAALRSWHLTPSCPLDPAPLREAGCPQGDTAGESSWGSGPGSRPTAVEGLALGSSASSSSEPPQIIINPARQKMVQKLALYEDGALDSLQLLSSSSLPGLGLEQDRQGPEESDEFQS

Row | SMILES | IC50 (MOLM14 D835Y cells; MOLM-14, Table 22, 48 h) | IC50 (IRAK1; Table 17) | IC50 (MOLM14 D835Y cells; MOLM-14, Table 16, 48 h) | IC50 (IRAK1; Table 11)
1 | COc1cn2ncc(-c3nc(N[C@H]4CNCC[C@@H]4F)ncc3F)c2nc1C1CC1 [Compound 15a, 4-(5-cyclopropyl-6-methoxypyrazolo[1,5-a]pyrimidin-3-yl)-5-fluoro-N-((3S,4S)-4-fluoropiperidin-3-yl)pyrimidin-2-amine] | 0.002 µM | < 0.0005 µM | – | –
2 | COc1cn2ncc(-c3cccc(N[C@H]4CNC[C@@H]4F)n3)c2nc1C1CC1 [Compound 19, 6-(5-cyclopropyl-6-methoxypyrazolo[1,5-a]pyrimidin-3-yl)-N-((3S,4S)-4-fluoropyrrolidin-3-yl)pyridin-2-amine] | – | – | 0.058 µM | 0.045 µM
3 | COc1cn2ncc(-c3cccc(N[C@H]4CNCC[C@@H]4F)n3)c2nc1C1CC1 [Compound 21, 6-(5-cyclopropyl-6-methoxypyrazolo[1,5-a]pyrimidin-3-yl)-N-((3S,4S)-4-fluoropiperidin-3-yl)pyridin-2-amine] | – | – | 0.046 µM | 0.038 µM

The remaining lines, values ahead:

Row | IC50 (MOLM14 D835Y cells; MOLM-14, Table 22, 48 h) | IC50 (IRAK1; Table 17) | IC50 (MOLM14 D835Y cells; MOLM-14, Table 16, 48 h) | IC50 (IRAK1; Table 11) | SMILES
4 | – | – | 0.041 µM | 0.146 µM | COc1cn2ncc(-c3cccc(N[C@@H]4CCCNC4)n3)c2nc1C1CC1 [Compound 20, (R)-6-(5-cyclopropyl-6-methoxypyrazolo[1,5-a]pyrimidin-3-yl)-N-(piperidin-3-yl)pyridin-2-amine]
5 | – | – | 0.002 µM | < 0.0005 µM | COc1cn2ncc(-c3nc(N[C@H]4CNCC[C@@H]4F)c(F)cc3F)c2nc1C1CC1 [Compound 22, 6-(5-cyclopropyl-6-methoxypyrazolo[1,5-a]pyrimidin-3-yl)-3,5-difluoro-N-((3S,4S)-4-fluoropiperidin-3-yl)pyridin-2-amine]
6 | – | – | 0.002 µM | 0.002 µM | COc1cn2ncc(-c3nc(N[C@H]4CNC[C@@H]4F)c(F)cc3F)c2nc1C1CC1 [Compound 24, 6-(5-cyclopropyl-6-methoxypyrazolo[1,5-a]pyrimidin-3-yl)-3,5-difluoro-N-((3S,4S)-4-fluoropyrrolidin-3-yl)pyridin-2-amine]

Source: US20260374773A1, “MULTI-CYCLIC IRAK AND FLT3 INHIBITING COMPOUNDS AND USES THEREOF” (CHILDREN'S HOSPITAL MEDICAL CENTER, priority 2022, published 2026)
